Key:
human hepatocytes = assay: Metabolism in human hepatocytes; type: in vitro ADME; settings: 0.5 μM
Description: Cryopreserved hepatocytes in suspension from human, monkey, dog, rat and mouse were thawed and diluted in pre-warmed William's Medium E (pH 7.4). Aliquots of the hepatocyte suspension were added to test compound working solutions prepared in pre-warmed William's Medium E (pH 7.4) to achieve final concentrations of 0.5 μM in 0.5×10^6 cells per milliliter and ≤0.25% DMSO. These samples were incubated at 37° C. with 5% carbon dioxide and shaking. The incubations were performed in singlet. At time points 0, 10, 30, 60, 120 and 240 minutes, a 50 μL aliquot of the incubation mixtures was removed and added to a 100 μL solution of acetonitrile containing internal standard and the mixture was then centrifuged at 4° C. and 3500 rpm for 15 minutes. Following completion of the experiment, samples were analyzed by LC-MS/MS. Metabolic stability results were reported as a percentage of parent test compound remaining. This percentage is calculated by dividing the LCMS peak area of test compound following incubation (tx) by the LCMS peak area of test compound at time-zero (t0) just prior to incubation.
The elimination rate constant (k, min^−1) is calculated using nonlinear regression fitting with the following equation: […]
where: C0 is the initial concentration represented as the peak area ratio (test compound peak area/internal standard peak area); Ct is the concentration at t represented as the area ratio (test compound peak area/internal standard peak area); e is the base of the natural logarithm t is the time (min); k is the elimination rate constant (min^−1). The half-life (t1/2, min) is calculated using the following equation: […]
where: k is the elimination rate constant (min^−1). The in vitro intrinsic clearance (CLint, mL/min/million cells) is calculated using the following equation: […]
where: t1/2 is the half-life; n is the number of cells per mL.

[1] = Cytotoxicity in uninfected MT2 cells, XTT colorimetric assay; type: cell-based; settings: human, day 4, XTT, read-out: cytotoxic CC50
Description: Compound cytotoxicity and the corresponding CC50 values were determined using the same protocol as described in the antiviral assay except that uninfected cells were used. Cytotoxicity was assessed on day 4 in uninfected MT2 cells by using an XTT (2,3-bis[2-Methoxy-4-nitro-5-sulfophenyl]-2H-tetrazolium-5-carboxanilide inner salt)-based colorimetric assay (Sigma-Aldrich, St Louis, Mo.).

[2] = Subcutaneous in vivo PK experiment in rat; set-up: species or system Wistar Han Rats; settings: subcutaneous injection 20 mg/kg
Description: Drug was formulated in 1% Kolliphor P188/1% PEG3350/3.5% Mannitol/94.5% Water and then administered to Wistar Han Rats as a subcutaneous injection at a dose of 20 mg/kg. Blood samples were collected at 0.167, 0.25, 0.5, 0.75, 1, 2, 3, 5, 7, 24, 48, 72, 96 h, and then every 3 days for up to 122 days. Blood samples were collected into K3EDTA tubes and centrifuged at 1500 to 2000×g to obtain plasma. Plasma samples were stored at −20° C. until analysis by LC-MS/MS.

[3] = tested on: primary human hepatocytes; assay: Cytotoxicity assessed in parallel in the CYP induction assay; type: cell-based; settings: concentrations tested up to 30 μM, 48 hours
Description: Compounds were tested in a CYP induction assay using inducible cryopreserved human primary hepatocytes from three donors to determine the potential to cause induction (as measured by an increase in mRNA transcription) of CYP2B6. Test compounds (0.12 to 30 μM final concentration) were incubated for 48 hours with primary human hepatocytes naturally expressing all nuclear receptors involved in regulation of expression levels of various CYP enzymes. Fresh solutions of test compounds and controls were diluted in assay media and added every 24 hours for two consecutive days, with a final DMSO concentration of 0.1%. At the end of the incubation, the integrity of cell monolayers, cell density and viability were evaluated to assess cytotoxicity effects. […] It was then used in reverse transcription polymerase chain reactions (RT-PCR) to quantify the amount of specific mRNA species encoding human CYP3A4, CYP2B6, and CYP1A2 genes.
The induction potential of test compounds and controls was compared to known CYP2B6 inducer Phenobarbital (1000 μM). The results of this assay are expressed as fold induction. Fold induction was calculated as a ratio of mRNA level in cells treated with test compound over that in cells treated with DMSO (solvent control) alone, the basal mRNA level, and thus represents the induction potential of the test compound. […]

SMILES: Cn1nc(NS(C)(=O)=O)c2c(Cl)ccc(-n3c([C@H](Cc4cc(F)cc(F)c4)NC(=O)Cn4nc(C(F)F)c5c4C(F)(F)[C@@H]4C[C@H]54)nc4nc(OCCC(C)(F)F)ccc4c3=O)c21 (atropisomer, axis not shown; (P)) [Example 1, N—((S)-1-((3P)-3-(4-chloro-1-methyl-3-(methylsulfonamido)-1H-indazol-7-yl)-7-(3,3-difluorobutoxy)-4-oxo-3,4-dihydropyrido[2,3-d]pyrimidin-2-yl)-2-(3,5-difluorophenyl)ethyl)-2-((3bS,4aR)-3-(difluoromethyl)-5,5-difluoro-3b,4,4a,5-tetrahydro-1H-cyclopropa[3,4]cyclopenta[1,2-c]pyrazol-1-yl)acetamide]
- intrinsic clearance in human hepatocytes (human hepatocytes): less than 0.2 mL/min/g liver
- half-life in human hepatocytes (human hepatocytes; 0.5×10^6 cells per milliliter): could not be measured
- parent remaining after incubation in human hepatocytes (human hepatocytes; 240 minute incubation): no metabolism was measurable
- CC50 at 4 days [1]: > 10 µM
- half-life ([2]; Wistar Han, plasma, sc, read-out: apparent half-life of compound in plasma (converted)): 50 days
- time drug concentrations were maintained above 5 ng/mL [2]: 87 days
- cytotoxicity in CYP induction assay [3]: No cytotoxicity was observed

From patent US20220105096A1, “INHIBITORS OF HUMAN IMMUNODEFICIENCY VIRUS REPLICATION” (ViiV HEALTHCARE UK (NO.5) LIMITED, priority 2019, published 2022)
